Data taken from ChEMBL document CHEMBL1201862, “PubChem BioAssay data set” (2004).
Blank lines part the entries; values can stand above or below the compound they belong to. Active and inactive are the calls of the source.

How the values were obtained:
Type in all cases: functional
[1] = biological target: Tyrosine-protein kinase receptor TYRO3 (Homo sapiens, UniProt Q06418);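 also: TYRO3 value obtained as one member of a kinome-wide profiling panel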
[2] = biological target: Receptor tyrosine-protein kinase erbB-2 (Homo sapiens, UniProt P04626); experiment: Navigating the Kinome. Panel member name: ERBB2
Sequence of Receptor tyrosine-protein kinase erbB-2 (P04626 whole entry): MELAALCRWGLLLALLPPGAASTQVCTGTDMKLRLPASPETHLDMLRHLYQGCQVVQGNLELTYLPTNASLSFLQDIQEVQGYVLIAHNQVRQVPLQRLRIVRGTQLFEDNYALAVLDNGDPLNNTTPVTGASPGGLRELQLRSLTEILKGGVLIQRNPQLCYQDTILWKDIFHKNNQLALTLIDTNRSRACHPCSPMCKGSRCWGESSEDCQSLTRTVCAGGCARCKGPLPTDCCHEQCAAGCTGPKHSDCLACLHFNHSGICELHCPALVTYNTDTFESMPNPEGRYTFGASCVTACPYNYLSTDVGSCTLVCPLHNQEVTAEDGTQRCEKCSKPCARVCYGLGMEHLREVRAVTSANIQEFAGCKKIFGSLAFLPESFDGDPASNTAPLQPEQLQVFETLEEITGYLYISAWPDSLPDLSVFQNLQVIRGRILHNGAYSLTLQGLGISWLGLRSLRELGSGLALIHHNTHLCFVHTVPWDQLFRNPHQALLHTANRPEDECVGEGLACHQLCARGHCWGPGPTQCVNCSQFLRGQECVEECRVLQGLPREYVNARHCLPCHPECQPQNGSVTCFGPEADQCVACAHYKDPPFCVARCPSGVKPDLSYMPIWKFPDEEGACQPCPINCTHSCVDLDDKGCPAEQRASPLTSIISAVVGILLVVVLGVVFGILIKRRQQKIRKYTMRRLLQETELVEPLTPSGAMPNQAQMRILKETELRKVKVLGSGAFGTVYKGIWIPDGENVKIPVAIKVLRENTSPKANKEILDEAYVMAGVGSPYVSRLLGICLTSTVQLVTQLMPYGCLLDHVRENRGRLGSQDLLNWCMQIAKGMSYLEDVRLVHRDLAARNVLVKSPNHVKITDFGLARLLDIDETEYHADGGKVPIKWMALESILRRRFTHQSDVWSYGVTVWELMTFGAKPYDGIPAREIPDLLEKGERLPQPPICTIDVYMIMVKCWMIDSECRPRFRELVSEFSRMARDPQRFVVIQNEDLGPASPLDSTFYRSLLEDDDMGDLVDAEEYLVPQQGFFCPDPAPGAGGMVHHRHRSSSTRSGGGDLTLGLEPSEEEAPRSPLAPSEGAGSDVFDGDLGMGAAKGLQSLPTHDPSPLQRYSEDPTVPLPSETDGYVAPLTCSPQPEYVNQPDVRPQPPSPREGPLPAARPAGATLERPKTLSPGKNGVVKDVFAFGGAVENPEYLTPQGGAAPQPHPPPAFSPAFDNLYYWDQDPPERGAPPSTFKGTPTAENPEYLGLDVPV

[3] = biological target: Serine/threonine-protein kinase Chk1 (Homo sapiens, UniProt O14757);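 also: measured as one member of a kinome-wide kinase profiling panel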
Sequence of Serine/threonine-protein kinase Chk1 (O14757 whole entry): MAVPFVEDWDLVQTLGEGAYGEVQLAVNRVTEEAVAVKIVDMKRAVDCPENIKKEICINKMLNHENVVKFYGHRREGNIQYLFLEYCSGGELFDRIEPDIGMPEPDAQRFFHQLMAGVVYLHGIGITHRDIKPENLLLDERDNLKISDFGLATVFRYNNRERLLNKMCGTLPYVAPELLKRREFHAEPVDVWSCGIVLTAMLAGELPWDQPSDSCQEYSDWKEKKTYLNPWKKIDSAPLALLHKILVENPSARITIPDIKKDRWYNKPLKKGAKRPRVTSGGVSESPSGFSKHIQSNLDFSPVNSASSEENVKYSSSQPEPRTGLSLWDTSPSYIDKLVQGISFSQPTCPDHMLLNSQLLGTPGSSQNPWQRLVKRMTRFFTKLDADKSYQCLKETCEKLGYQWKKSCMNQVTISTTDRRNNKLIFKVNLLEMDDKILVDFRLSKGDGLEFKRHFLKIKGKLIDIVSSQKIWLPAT

[4] = biological target: MAP kinase-interacting serine/threonine-protein kinase 2 (Homo sapiens, UniProt Q9HBH9)
Misshapen-like kinase 1 = Misshapen-like kinase 1 (Homo sapiens, UniProt Q8N4C8);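 also: kinome panel screen with MINK as the panel member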
[5] = biological target: Serine/threonine-protein kinase Nek4 (Homo sapiens, UniProt P51957)
Sequence of Serine/threonine-protein kinase Nek4 (P51957 whole entry): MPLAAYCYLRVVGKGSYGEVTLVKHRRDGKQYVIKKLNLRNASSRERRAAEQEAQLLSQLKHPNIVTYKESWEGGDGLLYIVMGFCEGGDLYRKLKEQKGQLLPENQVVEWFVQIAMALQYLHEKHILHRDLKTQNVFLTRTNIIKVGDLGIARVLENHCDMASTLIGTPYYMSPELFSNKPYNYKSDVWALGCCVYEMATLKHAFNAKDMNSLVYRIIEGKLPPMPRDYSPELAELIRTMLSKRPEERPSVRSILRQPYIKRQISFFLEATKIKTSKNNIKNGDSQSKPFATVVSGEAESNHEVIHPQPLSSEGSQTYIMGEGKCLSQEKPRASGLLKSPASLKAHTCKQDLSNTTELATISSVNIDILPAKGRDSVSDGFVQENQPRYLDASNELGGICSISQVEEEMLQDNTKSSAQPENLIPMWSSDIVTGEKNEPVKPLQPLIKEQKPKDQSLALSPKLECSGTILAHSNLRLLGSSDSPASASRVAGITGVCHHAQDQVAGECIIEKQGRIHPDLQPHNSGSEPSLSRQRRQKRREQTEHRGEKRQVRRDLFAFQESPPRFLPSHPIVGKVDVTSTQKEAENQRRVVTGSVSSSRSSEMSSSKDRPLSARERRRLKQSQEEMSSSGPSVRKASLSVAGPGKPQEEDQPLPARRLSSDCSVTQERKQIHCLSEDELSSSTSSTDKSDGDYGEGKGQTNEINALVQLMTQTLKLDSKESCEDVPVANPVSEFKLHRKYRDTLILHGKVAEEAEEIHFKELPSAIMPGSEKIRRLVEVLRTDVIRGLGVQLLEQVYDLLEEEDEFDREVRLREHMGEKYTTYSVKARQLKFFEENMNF

[6] = biological target: Dual specificity tyrosine-phosphorylation-regulated kinase 1B (Homo sapiens, UniProt Q9Y463); experiment: Navigating the Kinome. Panel member name: DYRK1B
Focal adhesion kinase 1 = Focal adhesion kinase 1 (Homo sapiens, UniProt Q05397);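 also: measured as one member of a kinome panel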
[7] = biological target: Interleukin-1 receptor-associated kinase 4 (Homo sapiens, UniProt Q9NWZ3)
Sequence of Interleukin-1 receptor-associated kinase 4 (Q9NWZ3 whole entry): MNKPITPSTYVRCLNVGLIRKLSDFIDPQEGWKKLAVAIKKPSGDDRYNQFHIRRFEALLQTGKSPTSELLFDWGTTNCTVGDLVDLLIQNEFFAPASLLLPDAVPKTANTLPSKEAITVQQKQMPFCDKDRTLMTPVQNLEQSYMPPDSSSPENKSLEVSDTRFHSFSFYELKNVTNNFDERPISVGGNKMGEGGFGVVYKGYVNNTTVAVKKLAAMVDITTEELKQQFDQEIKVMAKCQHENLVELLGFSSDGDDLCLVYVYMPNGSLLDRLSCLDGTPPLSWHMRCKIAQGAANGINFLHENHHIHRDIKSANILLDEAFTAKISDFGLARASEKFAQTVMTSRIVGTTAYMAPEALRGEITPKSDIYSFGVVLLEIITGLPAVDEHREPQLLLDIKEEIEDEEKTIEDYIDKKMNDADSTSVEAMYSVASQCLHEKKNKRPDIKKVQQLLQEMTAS

[8] = biological target: Cyclin-dependent kinase 1 (Homo sapiens, UniProt P06493);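 also: Kinome-wide panel profiling, with the target listed as panel member CDC2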
[9] = biological target: Glycogen synthase kinase-3 beta (Homo sapiens, UniProt P49841);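 also: value comes from a broad kinome profiling panel, with GSK3B as the panel member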
Sequence of Glycogen synthase kinase-3 beta (P49841 whole entry): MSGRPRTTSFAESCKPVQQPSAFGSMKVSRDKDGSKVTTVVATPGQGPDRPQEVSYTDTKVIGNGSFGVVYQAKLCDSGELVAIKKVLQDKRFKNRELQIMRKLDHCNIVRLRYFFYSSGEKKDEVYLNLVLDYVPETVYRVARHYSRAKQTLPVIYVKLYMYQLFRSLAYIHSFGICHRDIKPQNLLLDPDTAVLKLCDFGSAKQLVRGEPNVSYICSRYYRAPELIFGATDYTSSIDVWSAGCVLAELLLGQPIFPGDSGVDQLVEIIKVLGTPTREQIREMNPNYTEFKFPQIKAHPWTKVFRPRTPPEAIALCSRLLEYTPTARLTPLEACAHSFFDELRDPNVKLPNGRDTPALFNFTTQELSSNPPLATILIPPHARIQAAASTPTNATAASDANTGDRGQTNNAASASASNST

[10] = biological target: Lymphokine-activated killer T-cell-originated protein kinase (Homo sapiens, UniProt Q96KB5);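 also: value comes from a kinase panel screen in which TOPK was one of the panel members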
[11] = biological target: Serine/threonine-protein kinase BRSK1 (Homo sapiens, UniProt Q8TDC3);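 also: measured within a kinome-wide kinase panel, with the target listed as KIAA1811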
Sequence of Serine/threonine-protein kinase BRSK1 (Q8TDC3 whole entry): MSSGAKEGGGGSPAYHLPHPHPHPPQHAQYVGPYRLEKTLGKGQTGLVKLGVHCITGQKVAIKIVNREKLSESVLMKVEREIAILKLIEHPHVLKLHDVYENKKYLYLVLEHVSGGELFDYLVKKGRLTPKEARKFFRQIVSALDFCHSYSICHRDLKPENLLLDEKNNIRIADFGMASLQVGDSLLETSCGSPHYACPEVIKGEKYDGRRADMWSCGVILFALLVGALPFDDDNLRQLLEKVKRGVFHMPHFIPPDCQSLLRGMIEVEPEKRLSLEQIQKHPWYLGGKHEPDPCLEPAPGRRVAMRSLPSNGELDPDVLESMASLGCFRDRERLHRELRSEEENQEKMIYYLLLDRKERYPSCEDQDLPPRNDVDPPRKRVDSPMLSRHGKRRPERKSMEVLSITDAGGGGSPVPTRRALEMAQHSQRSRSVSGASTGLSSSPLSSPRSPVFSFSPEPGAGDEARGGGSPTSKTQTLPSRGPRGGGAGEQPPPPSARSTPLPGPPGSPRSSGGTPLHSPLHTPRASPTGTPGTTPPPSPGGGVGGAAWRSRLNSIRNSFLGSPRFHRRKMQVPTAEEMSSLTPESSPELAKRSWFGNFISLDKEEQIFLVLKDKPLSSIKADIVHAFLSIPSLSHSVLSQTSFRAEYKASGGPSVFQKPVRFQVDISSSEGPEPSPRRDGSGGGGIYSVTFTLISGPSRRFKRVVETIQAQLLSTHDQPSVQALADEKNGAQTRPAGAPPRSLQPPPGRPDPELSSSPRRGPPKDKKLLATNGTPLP

[12] = biological target: Inhibitor of nuclear factor kappa-B kinase subunit epsilon (Homo sapiens, UniProt Q14164); experiment: Navigating the Kinome. Panel member name: IKBKE
Sequence of Inhibitor of nuclear factor kappa-B kinase subunit epsilon (Q14164 whole entry): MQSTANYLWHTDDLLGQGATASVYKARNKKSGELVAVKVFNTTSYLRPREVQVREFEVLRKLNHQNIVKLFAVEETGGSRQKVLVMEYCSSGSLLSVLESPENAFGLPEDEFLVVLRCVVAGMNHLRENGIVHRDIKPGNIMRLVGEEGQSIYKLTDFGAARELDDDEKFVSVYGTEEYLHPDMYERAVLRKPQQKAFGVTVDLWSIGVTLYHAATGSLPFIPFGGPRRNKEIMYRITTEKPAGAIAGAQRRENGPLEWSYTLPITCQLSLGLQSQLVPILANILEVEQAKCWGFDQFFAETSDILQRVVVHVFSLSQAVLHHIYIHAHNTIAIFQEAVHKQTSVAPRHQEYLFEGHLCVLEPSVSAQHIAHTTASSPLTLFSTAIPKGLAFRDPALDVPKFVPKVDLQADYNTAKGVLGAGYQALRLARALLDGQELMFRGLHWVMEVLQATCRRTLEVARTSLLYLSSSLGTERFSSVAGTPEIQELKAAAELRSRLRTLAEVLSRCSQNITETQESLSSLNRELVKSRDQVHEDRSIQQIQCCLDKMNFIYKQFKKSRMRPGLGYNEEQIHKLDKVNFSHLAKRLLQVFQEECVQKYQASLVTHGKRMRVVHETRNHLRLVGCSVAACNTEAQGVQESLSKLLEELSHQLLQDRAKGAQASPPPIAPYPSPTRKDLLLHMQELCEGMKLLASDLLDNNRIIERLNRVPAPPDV

[13] = biological target: T1, Sentrin-specific protease 7 (Homo sapiens, UniProt Q9BQF6);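 also: Luminescence-based dose-response confirmation of ultra-high-throughput screening hits, measuring inhibition of SENP7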
T1 sequence (Q9BQF6 whole entry): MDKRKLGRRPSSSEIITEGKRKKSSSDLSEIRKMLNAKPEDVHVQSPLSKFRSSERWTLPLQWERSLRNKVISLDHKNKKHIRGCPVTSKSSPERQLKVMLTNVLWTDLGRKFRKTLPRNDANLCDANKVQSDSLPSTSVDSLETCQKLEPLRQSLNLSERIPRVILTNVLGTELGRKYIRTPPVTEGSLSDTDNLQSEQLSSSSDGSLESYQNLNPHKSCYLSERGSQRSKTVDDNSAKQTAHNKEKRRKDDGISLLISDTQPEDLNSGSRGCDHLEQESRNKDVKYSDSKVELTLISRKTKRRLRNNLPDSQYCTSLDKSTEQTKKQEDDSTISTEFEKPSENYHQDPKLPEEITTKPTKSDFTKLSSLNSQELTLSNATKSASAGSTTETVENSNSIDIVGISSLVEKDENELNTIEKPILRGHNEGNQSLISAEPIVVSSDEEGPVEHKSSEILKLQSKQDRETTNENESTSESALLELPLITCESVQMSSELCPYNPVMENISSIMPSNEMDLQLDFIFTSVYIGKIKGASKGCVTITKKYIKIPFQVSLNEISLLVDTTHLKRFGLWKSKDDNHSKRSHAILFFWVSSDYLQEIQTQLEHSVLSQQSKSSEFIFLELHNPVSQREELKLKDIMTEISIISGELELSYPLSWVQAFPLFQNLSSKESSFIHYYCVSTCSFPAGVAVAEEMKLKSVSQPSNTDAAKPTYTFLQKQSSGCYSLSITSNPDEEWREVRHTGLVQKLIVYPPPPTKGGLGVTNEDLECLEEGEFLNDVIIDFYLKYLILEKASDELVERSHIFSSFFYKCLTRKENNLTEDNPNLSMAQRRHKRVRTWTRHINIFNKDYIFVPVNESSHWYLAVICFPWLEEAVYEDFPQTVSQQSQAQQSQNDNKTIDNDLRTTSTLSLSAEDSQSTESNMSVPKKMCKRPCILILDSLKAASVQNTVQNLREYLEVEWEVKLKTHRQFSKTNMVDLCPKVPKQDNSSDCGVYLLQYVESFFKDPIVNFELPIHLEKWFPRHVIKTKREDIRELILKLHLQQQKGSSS

[14] = biological target: T2, Sentrin-specific protease 6 (Homo sapiens, UniProt Q9GZR1); experiment: SAR Analysis of small molecule inhibitors of Sentrin-specific protease 6 (SENP6) using a Luminescent assay. [Related pubchem assays (depositor defined):AID2582, AID2599]
T2 sequence (Q9GZR1 whole entry): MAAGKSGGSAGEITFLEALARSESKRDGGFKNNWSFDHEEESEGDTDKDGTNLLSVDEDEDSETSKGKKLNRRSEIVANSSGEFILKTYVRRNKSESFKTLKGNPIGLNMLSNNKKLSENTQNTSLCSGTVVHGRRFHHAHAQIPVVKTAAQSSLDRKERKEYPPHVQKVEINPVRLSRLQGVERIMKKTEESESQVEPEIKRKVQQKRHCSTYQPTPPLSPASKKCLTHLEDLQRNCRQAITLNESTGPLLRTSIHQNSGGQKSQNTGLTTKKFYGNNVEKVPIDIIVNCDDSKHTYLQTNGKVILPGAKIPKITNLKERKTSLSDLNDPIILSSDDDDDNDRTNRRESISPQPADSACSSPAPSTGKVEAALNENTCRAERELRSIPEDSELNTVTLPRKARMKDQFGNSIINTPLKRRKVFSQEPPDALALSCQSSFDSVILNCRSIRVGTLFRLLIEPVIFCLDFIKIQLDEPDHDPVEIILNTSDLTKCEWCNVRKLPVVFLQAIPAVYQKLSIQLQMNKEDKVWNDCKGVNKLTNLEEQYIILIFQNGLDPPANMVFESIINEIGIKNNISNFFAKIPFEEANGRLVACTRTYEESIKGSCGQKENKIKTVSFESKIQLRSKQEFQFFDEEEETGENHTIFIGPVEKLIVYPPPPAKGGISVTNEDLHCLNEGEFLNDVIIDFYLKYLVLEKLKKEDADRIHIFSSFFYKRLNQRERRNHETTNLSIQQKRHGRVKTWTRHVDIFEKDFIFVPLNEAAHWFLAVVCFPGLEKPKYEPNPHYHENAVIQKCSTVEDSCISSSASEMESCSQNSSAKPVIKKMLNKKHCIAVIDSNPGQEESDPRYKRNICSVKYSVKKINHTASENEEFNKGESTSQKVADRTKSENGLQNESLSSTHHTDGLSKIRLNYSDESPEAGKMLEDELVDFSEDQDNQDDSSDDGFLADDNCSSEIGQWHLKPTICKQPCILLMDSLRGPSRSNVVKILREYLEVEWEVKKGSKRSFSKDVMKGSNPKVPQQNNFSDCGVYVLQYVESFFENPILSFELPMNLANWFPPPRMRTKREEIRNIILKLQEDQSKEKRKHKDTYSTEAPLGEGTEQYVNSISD

Ki [1]: > 2.51 µM (inactive) | Ki [2]: > 1.58 µM (inactive) | Ki [3]: > 7.94 µM (inactive) | Ki [4]: 2 µM (active) | Ki (Misshapen-like kinase 1): 3.16 µM (active) | Ki [5]: > 6.31 µM (inactive) | Ki [6]: 0.158 µM (active) | Ki (Focal adhesion kinase 1): > 3.16 µM (inactive) | Ki [7]: 2.51 µM (active) | Ki [8]: 0.631 µM (active) | Ki [9]: > 5.01 µM (inactive) | Ki [11]: 3.98 µM (active) | Ki [12]: > 3.16 µM (inactive)
Structure (SMILES): CC(N)C1CCC(C(=O)Nc2ccnc3[nH]ccc23)CC1 (stereo unspecified)
Ki [10]: 5.01 µM (active)

Structure (SMILES): Cc1c(NC(=O)C(C)OC(=O)c2ccc([N+](=O)[O-])s2)c(=O)n(-c2ccccc2)n1C (stereo unspecified)
IC50 [13]: 10.4 µM (active)

Structure (SMILES): COc1cc(Br)c(C(=O)c2nccc3cc(OC)c(OC)cc23)cc1OC
IC50 [14]: 14.3 µM (active)
